One assay has as its target T1, human TRPA1 (Homo sapiens, UniProt O75762).
T1 construct: expressed in transfected cells; host or cells: CHO cells (G-418 selection)
Put plainly: 45Calcium uptake assay, inhibition of AITC induced calcium uptake in human TRPA1 expressing CHO cells. In kind it is cell-based. To be noted: AITC 30 μM; for inhibition at 1 µM: 1.0 μM compound, read-out: human TRPA1 Percentage inhibition at 1.0 μM; for inhibition at 10 µM: 10.0 μM compound, read-out: human TRPA1 Percentage inhibition at 10.0 μM. The source says: (§1) The illustrative examples of the present invention are screened for TRPA1 activity according to a modified procedure described in (a) Tóth, A. et al. Life Sciences, 2003, 73, 487-498. (b) McNamara C, R. et al, Proc. Natl. Acad. Sci. U.S.A., 2007, 104, 13525-13530. The screening of the compounds can be carried out by other methods and procedures known to persons skilled in the art.
(§2) Screening for TRPA1 Antagonist Using the ^45Calcium Uptake Assay:
(§3) The inhibition of TRPA1 receptor activation was measured as inhibition of allyl isothiocyanate (AITC) induced cellular uptake of radioactive calcium.
(§4) Test compounds were dissolved in 100% DMSO to prepare 10 mM stock and then diluted using plain medium with 0.1% BSA and 1.8 mM CaCl2 to get the desired concentration. The final concentration of DMSO in the reaction was 0.5% (v/v). Human TRPA1 expressing CHO cells were grown in F-12 DMEM medium with 10% FBS, 1% penicillin-streptomycin solution, and 400 μg/ml of G-418. Rat TRPA1 expressing CHO cells were grown in F-12 DMEM medium with 10% FBS, 1% penicillin-streptomycin solution, and 400 μg/ml of Zeocin. Cells were seeded 24 h prior to the assay in 96 well plates so as to get ˜50,000 cells per well on the day of experiment. Cells were treated with the test compounds for 10 minutes followed by the addition of AITC at a final concentration of 30 μM (for human TRPA1) and/or 10 μM (for rat TRPA1) and 5 μCi/ml ^45Ca^+2 for 3 minutes. Cells were washed and lysed using a buffer containing 1% Triton X-100, 0.1% deoxycholate and 0.1% SDS. Radioactivity in the lysate was measured in a Packard TopCount after addition of liquid scintillant. (Toth et al, Life Sciences (2003) 73, 487-498; McNamara C R et al, Proceedings of the National Academy of Sciences, (2007) 104, 13525-13530).
(§5) Concentration response curves were plotted as a % of maximal response obtained in the absence of test antagonist. IC50 values can be calculated from concentration response curve by nonlinear regression analysis using GraphPad PRISM software.

The target in the next assay is T2, rat TRPA1 (Rattus norvegicus, UniProt Q6RI86).
T2 construct: expressed in transfected cells; host or cells: CHO cells (Zeocin selection)
T2 sequence (Q6RI86 whole entry): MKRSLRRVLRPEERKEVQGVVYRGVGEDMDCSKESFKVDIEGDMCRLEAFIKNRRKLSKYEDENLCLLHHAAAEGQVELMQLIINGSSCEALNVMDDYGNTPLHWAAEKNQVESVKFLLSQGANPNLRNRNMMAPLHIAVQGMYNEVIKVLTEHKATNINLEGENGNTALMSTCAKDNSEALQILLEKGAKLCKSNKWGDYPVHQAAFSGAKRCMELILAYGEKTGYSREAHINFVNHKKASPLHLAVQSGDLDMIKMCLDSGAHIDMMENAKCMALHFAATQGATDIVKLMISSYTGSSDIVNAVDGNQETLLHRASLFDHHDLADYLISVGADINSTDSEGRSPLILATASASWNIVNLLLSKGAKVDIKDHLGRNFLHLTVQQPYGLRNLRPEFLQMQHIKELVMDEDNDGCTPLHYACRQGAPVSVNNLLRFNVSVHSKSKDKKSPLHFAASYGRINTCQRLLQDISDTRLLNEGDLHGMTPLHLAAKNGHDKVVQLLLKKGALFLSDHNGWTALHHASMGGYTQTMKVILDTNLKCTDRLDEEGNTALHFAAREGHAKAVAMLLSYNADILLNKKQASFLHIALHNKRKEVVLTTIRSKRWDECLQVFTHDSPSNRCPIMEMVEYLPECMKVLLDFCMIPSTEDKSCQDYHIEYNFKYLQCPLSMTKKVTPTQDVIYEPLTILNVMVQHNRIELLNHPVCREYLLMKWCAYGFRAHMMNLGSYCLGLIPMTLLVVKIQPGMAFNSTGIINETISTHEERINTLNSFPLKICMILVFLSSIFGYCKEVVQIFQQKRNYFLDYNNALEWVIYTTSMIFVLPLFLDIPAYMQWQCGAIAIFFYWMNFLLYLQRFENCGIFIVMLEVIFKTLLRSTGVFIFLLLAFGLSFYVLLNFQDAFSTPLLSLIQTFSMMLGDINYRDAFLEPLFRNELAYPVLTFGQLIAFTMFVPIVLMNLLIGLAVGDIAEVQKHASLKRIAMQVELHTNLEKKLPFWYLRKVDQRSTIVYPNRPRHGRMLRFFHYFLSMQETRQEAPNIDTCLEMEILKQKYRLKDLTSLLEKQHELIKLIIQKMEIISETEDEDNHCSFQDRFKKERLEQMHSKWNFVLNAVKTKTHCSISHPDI
Briefly: 45Calcium uptake assay, inhibition of AITC induced calcium uptake in rat TRPA1 expressing CHO cells. In kind it is cell-based. To be noted: AITC 10 μM; for inhibition at 1 µM: 1.0 μM compound, read-out: rat TRPA1 Percentage inhibition at 1.0 μM; for inhibition at 10 µM: 10.0 μM compound, read-out: rat TRPA1 Percentage inhibition at 10.0 μM.
From the text: as §1, §2, §3, §4, §5

T1 sequence (O75762 whole entry): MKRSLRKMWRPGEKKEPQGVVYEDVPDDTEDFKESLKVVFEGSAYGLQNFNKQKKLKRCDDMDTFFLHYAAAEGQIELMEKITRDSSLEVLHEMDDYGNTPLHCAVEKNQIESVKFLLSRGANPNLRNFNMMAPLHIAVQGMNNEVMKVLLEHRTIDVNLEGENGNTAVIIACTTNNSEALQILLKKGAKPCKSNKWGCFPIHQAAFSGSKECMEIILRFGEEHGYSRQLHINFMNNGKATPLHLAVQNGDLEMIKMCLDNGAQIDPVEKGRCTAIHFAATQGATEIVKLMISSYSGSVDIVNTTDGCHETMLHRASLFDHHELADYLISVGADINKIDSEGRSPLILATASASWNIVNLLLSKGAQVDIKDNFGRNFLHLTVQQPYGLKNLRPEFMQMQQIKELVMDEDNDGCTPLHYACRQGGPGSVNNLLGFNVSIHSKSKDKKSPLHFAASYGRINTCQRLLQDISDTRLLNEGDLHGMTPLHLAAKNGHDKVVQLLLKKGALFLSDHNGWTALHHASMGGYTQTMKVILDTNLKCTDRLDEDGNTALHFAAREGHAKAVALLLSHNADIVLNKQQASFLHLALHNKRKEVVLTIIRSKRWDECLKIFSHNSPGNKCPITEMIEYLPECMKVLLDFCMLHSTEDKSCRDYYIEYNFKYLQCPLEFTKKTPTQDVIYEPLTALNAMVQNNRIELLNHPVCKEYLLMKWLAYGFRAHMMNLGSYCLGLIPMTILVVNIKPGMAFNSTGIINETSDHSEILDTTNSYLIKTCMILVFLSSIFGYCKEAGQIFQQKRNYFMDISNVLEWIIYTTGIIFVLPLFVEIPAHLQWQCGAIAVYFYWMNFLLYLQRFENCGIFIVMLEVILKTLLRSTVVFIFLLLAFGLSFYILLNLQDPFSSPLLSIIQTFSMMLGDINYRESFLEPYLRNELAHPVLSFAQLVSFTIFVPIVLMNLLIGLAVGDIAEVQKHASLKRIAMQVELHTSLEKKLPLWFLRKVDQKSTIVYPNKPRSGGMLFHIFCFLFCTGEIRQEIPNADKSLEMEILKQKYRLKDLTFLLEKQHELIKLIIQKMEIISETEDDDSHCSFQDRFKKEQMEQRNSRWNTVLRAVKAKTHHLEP

In the case of `Cn1c(=O)c2c(CC(=O)Nc3nc(-c4ccc(C(F)(F)F)cc4F)cs3)nsc2n(C)c1=O` [Example 21, 2-(5,7-Dimethyl-4,6-dioxo-4,5,6,7-tetrahydro[1,2]thiazolo[5,4-d]pyrimidin-3-yl)-N-{4-[2-fluoro-4-(trifluoromethyl)phenyl]-1,3-thiazol-2-yl}acetamide], on human TRPA1, the inhibition at 1 µM stood at 99.5%, the inhibition at 10 µM turned out to be 100% and the IC50 was under 50 nM. Further, on rat TRPA1, the inhibition at 1 µM stood at 100%, the inhibition at 10 µM came out at 100% and the IC50 is under 50 nM.

For the molecule `Cn1c(=O)c2c(CC(=O)Nc3nc(-c4cc(F)cc(C(F)(F)F)c4)cs3)nsc2n(C)c1=O` [Example 22, 2-(5,7-Dimethyl-4,6-dioxo-4,5,6,7-tetrahydro[1,2]thiazolo[5,4-d]pyrimidin-3-yl)-N-{4-[3-fluoro-5-(trifluoromethyl)phenyl]-1,3-thiazol-2-yl}acetamide], at human TRPA1, the inhibition at 1 µM turned out to be 100%, the inhibition at 10 µM stood at 100% and the IC50 is under 50 nM. At rat TRPA1, the inhibition at 1 µM came out at 98.3% and the inhibition at 10 µM stood at 100%.

Take `Cn1c(=O)c2c(CC(=O)Nc3nc(-c4cccc(C(F)(F)F)c4F)cs3)nsc2n(C)c1=O` [Example 23, 2-(5,7-Dimethyl-4,6-dioxo-4,5,6,7-tetrahydro[1,2]thiazolo[5,4-d]pyrimidin-3-yl)-N-{4-[2-fluoro-3-(trifluoromethyl)phenyl]-1,3-thiazol-2-yl}acetamide]: on human TRPA1, the inhibition at 1 µM stood at 99.3%, the inhibition at 10 µM is 100% and the concentration for half-maximal inhibition (IC50) is under 50 nM. Also, at rat TRPA1, the inhibition at 1 µM is 100%, the inhibition at 10 µM was determined as 100% and the IC50 was under 50 nM.

As to `Cn1c(=O)c2c(CC(=O)Nc3nc(-c4ccc(F)c(OC(F)(F)F)c4)cs3)nsc2n(C)c1=O` [Example 24, 2-(5,7-Dimethyl-4,6-dioxo-4,5,6,7-tetrahydro[1,2]thiazolo[5,4-d]pyrimidin-3-yl)-N-{4-[4-fluoro-3-(trifluoromethoxy)phenyl]-1,3-thiazol-2-yl}acetamide], at human TRPA1, the inhibition at 1 µM was determined as 99.6%, the inhibition at 10 µM was 100% and the IC50 is under 50 nM. Also, on rat TRPA1, the inhibition at 1 µM came to 100%, the inhibition at 10 µM stood at 99.8% and the IC50 lay in the range of 50 to 100 nM.

Regarding `Cn1c(=O)c2c(CC(=O)Nc3nc(-c4ccc(OC(F)(F)F)c(F)c4)cs3)nsc2n(C)c1=O` [Example 25, 2-(5,7-Dimethyl-4,6-dioxo-4,5,6,7-tetrahydro[1,2]thiazolo[5,4-d]pyrimidin-3-yl)-N-{4-[3-fluoro-4-(trifluoromethoxy)phenyl]-1,3-thiazol-2-yl}acetamide], at human TRPA1, the inhibition at 1 µM came out at 99.9%, the inhibition at 10 µM was 100% and the half-maximal inhibitory concentration (IC50) was under 50 nM. Moreover, on rat TRPA1, the inhibition at 1 µM is 98.8%, the inhibition at 10 µM was 100% and the IC50 lay within 50 to 100 nM.

Turning to `Cn1c(=O)c2c(CC(=O)Nc3nc(-c4ccc(Cl)c(Cl)c4)cs3)nsc2n(C)c1=O` [Example 26, N-[4-(3,4-Dichlorophenyl)-1,3-thiazol-2-yl]-2-(5,7-dimethyl-4,6-dioxo-4,5,6,7-tetrahydro[1,2]thiazolo[5,4-d]pyrimidin-3-yl)acetamide], at human TRPA1, the inhibition at 1 µM is 99.9%, the inhibition at 10 µM turned out to be 99.5% and the IC50 is under 50 nM. For the same molecule, at rat TRPA1, the inhibition at 1 µM worked out at 97.7%, the inhibition at 10 µM is 100% and the concentration for half-maximal inhibition (IC50) is over 100 nM.

`Cn1c(=O)c2c(CC(=O)Nc3nc(-c4ccc(F)c(F)c4)cs3)nsc2n(C)c1=O` [Example 27, N-[4-(3,4-Difluorophenyl)-1,3-thiazol-2-yl]-2-(5,7-dimethyl-4,6-dioxo-4,5,6,7-tetrahydro[1,2]thiazolo[5,4-d]pyrimidin-3-yl)acetamide]: on human TRPA1, the inhibition at 1 µM was determined as 97.8%, the inhibition at 10 µM came to 99.8% and the IC50 was under 50 nM. For the same molecule, at rat TRPA1, the inhibition at 1 µM is 81.8%, the inhibition at 10 µM worked out at 99.6% and the IC50 is over 100 nM.

Take `Cn1c(=O)c2c(CC(=O)Nc3nc(-c4ccc(F)cc4F)cs3)nsc2n(C)c1=O` [Example 28, N-[4-(2,4-Difluorophenyl)-1,3-thiazol-2-yl]-2-(5,7-dimethyl-4,6-dioxo-4,5,6,7-tetrahydro[1,2]thiazolo[5,4-d]pyrimidin-3-yl)acetamide]: on human TRPA1, the inhibition at 1 µM came to 98%, the inhibition at 10 µM came out at 99.6% and the concentration for half-maximal inhibition (IC50) was under 50 nM. In addition, at rat TRPA1, the inhibition at 1 µM was determined as 92.8% and the inhibition at 10 µM was 100%.

On to `Cn1c(=O)c2c(CC(=O)Nc3nc(-c4ccc(Cl)c(C(F)(F)F)c4)cs3)nsc2n(C)c1=O` [Example 29, 2-(5,7-Dimethyl-4,6-dioxo-4,5,6,7-tetrahydro[1,2]thiazolo[5,4-d]pyrimidin-3-yl)-N-{4-[4-chloro-3-(trifluoromethyl)phenyl]-1,3-thiazol-2-yl}acetamide], for which, at human TRPA1, the inhibition at 1 µM worked out at 98.1%, the inhibition at 10 µM came to 99.6% and the 50% inhibitory concentration (IC50) is under 50 nM. Moreover, on rat TRPA1, the inhibition at 1 µM turned out to be 100%, the inhibition at 10 µM was determined as 100% and the half-inhibitory concentration (IC50) is under 50 nM.

As for `Cn1c(=O)c2c(CC(=O)Nc3nc(-c4ccc(OC(F)(F)F)c(Cl)c4)cs3)nsc2n(C)c1=O` [Example 30, 2-(5,7-Dimethyl-4,6-dioxo-4,5,6,7-tetrahydro[1,2]thiazolo[5,4-d]pyrimidin-3-yl)-N-{4-[3-chloro-4-(trifluoromethoxy)phenyl]-1,3-thiazol-2-yl}acetamide], on human TRPA1, the inhibition at 1 µM stood at 95.6%, the inhibition at 10 µM was 99.7% and the IC50 is under 50 nM. Further, on rat TRPA1, the inhibition at 1 µM came out at 100%, the inhibition at 10 µM was 99.3% and the half-maximal inhibitory concentration (IC50) lay in the range of 50 to 100 nM.

In the case of `Cn1c(=O)c2c(CC(=O)Nc3nc(-c4ccc(Cl)c(OC(F)(F)F)c4)cs3)nsc2n(C)c1=O` [Example 31, 2-(5,7-Dimethyl-4,6-dioxo-4,5,6,7-tetrahydro[1,2]thiazolo[5,4-d]pyrimidin-3-yl)-N-{4-[4-chloro-3-(trifluoromethoxy)phenyl]-1,3-thiazol-2-yl}acetamide], on human TRPA1, the inhibition at 1 µM was found to be 99.2% and the inhibition at 10 µM was determined as 99.2%. In addition, on rat TRPA1, the inhibition at 1 µM was determined as 99.6% and the inhibition at 10 µM was 96.2%.

As for `Cn1c(=O)c2c(CC(=O)Nc3nc(-c4cc(Cl)cc(C(F)(F)F)c4)cs3)nsc2n(C)c1=O` [Example 32, 2-(5,7-Dimethyl-4,6-dioxo-4,5,6,7-tetrahydro[1,2]thiazolo[5,4-d]pyrimidin-3-yl)-N-{4-[3-chloro-5-(trifluoromethyl)phenyl]-1,3-thiazol-2-yl}acetamide], on human TRPA1, the inhibition at 1 µM came to 99.2% and the inhibition at 10 µM was found to be 99.4%. In addition, on rat TRPA1, the inhibition at 1 µM was determined as 99.8% and the inhibition at 10 µM amounted to 100%.

Consider `Cn1c(=O)c2c(CC(=O)Nc3nc(-c4ccc(F)c(C(F)(F)F)c4F)cs3)nsc2n(C)c1=O` [Example 37, N-{4-[2,4-Difluoro-3-(trifluoromethyl)phenyl]-1,3-thiazol-2-yl}-2-(5,7-dimethyl-4,6-dioxo-4,5,6,7-tetrahydro[1,2]thiazolo[5,4-d]pyrimidin-3-yl)acetamide], for which, on human TRPA1, the inhibition at 1 µM is 98.3%, the inhibition at 10 µM was found to be 99.3% and the 50% inhibitory concentration (IC50) is under 50 nM. Moreover, the concentration for half-maximal inhibition (IC50) at rat TRPA1 was under 50 nM.

On to `Cn1c(=O)c2c(CC(=O)Nc3nc(-c4cc(F)c(C(F)(F)F)c(F)c4)cs3)nsc2n(C)c1=O` [Example 38, N-{4-[3,5-difluoro-4-(trifluoromethyl)phenyl]-1,3-thiazol-2-yl}-2-(5,7-dimethyl-4,6-dioxo-4,5,6,7-tetrahydro[1,2]thiazolo[5,4-d]pyrimidin-3-yl)acetamide], for which, on human TRPA1, the inhibition at 1 µM came out at 100%, the inhibition at 10 µM was 99.9% and the half-maximal inhibitory concentration (IC50) is under 50 nM. Also, at rat TRPA1, the inhibition at 1 µM was found to be 100%, the inhibition at 10 µM is 100% and the IC50 was under 50 nM.

A word on the inhibition: it is how much of the control response was suppressed. By IC50 is commonly meant the midpoint of a concentration-inhibition curve.
